Data taken from US20250268903A1, “RXFP1 AGONISTS” (BRISTOL-MYERS SQUIBB COMPANY, priority 2021, published 2025).

The compounds below were run against T1, human RXFP1 (Homo sapiens, UniProt Q9HBX9) (assay: hRXFP1 HEK293 cAMP assay (HTRF)). Details: HEK293 cells stably expressing human RXFP1, 30 min at room temperature.
T1 construct: expressed in transfected cells
T1 sequence (Q9HBX9 1-757): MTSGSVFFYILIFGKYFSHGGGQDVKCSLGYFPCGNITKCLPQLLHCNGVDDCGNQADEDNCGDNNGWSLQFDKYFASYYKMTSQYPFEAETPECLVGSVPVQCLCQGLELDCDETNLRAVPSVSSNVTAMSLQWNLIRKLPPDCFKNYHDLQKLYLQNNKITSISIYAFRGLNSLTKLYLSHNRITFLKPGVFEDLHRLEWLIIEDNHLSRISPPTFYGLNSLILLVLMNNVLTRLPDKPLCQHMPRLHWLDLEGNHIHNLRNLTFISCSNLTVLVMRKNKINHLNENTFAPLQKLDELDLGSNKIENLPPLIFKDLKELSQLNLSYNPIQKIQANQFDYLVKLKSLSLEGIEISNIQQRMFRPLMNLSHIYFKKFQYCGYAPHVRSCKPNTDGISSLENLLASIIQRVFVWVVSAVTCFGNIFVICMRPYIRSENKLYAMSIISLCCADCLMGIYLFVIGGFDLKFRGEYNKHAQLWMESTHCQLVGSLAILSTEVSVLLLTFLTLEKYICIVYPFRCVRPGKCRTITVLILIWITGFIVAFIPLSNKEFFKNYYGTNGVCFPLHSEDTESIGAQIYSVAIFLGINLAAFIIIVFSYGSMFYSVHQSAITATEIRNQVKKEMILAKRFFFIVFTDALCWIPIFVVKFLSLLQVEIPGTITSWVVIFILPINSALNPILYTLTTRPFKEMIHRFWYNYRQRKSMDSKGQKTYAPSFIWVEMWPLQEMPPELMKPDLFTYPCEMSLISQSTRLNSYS
Type: cell-based
In short: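 HEK293 cells stably expressing human RXFP1 were suspended in HBSS (Ca/Mg) with 20 mM HEPES, 0.05% BSA and 0.5 mM IBMX, then treated with compounds (0.010 nM–50 μM, 2% DMSO final) for 30 min at room temperature. Intracellular cAMP was measured by HTRF, and potency was derived from 4-parameter logistic fits.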

Row | SMILES | EC50 [nM]
1 | COc1ccc(C2CCCC(OC(=O)Nc3ccccc3)C2)cc1C(=O)N[C@@H]1C2CCC(/C2=C/C(F)(F)F)[C@@H]1C(=O)Nc1ccc(F)c(C(F)(F)F)c1 (single isomer, unassigned) [Example 41] | 201
2 | COc1ccc(S(=O)(=O)N2CCO[C@@H](CO)C2)cc1C(=O)NC1C2CCC(/C2=C/C(F)(F)F)[C@@H]1C(=O)Nc1ccc(F)c(C(F)(F)F)c1 (stereo partly drawn) [Example 200, (2S,3R,7Z)-N-[4-fluoro-3-(trifluoromethyl)phe-nyl]-3-(5-{[(2R)-2-(hydroxymethyl)mor-pholin-4-yl]sulfonyl}-2-methoxybenzamido)-7-(2,2,2-trifluoroethylidene)bi-cyclo[2.2.1]heptane-2-carboxamide] | 203
3 | COc1ccc(CC2CCOCC2)cc1C(=O)NC1C2CCC(/C2=C/C2CCC2)[C@@H]1C(=O)Nc1ccc(F)c(C(F)(F)F)c1 (stereo partly shown) [Example 194, (7Z)-7-(cyclobutylmethyli-dene)-N-[4-fluoro-3-(trifluoromethyl)phe-nyl]-3-{2-methoxy-5-[(oxan-4-yl)methyl]benzamido} bicyclo[2.2.1]hept-ane-2-carboxamide] | 76
4 | COc1ccc(C(=O)NCC(C)(C)O)cc1C(=O)N[C@H]1[C@@H](C(=O)Nc2ccc(F)c(C(F)(F)F)c2)[C@H]2CC[C@@H]1/C2=C\C1CC1 [Example 240, N3-[(1R,2R,3S,4R,7Z)-7-(cyclopropyl-methylidene)-3-{[4-fluoro-3-(trifluoromethyl)phenyl]carbamoyl}bicyclo[2.2.1]heptan-2-yl]-N1-(2-hydroxy-2-methylpropyl)-4-methoxybenzene-1,3-dicarboxamide] | 53.1
5 | COc1ccc(/C=C/C(=O)N[C@H]2C[C@@H](O)C2)cc1C(=O)N[C@@H]1C2CCC(/C2=C/C2CC2)[C@@H]1C(=O)Nc1ccc(F)c(C(F)(F)F)c1 (stereo partly drawn) [Example 128, (2S,3R,7Z)-7-(cyclopropylmethyli-dene)-N-[4-fluoro-3-(trifluoromethyl)phe-nyl]-3-{2-methoxy-5-[(1E)-2-{[(1s,3s)-3-hydroxycyclobutyl]carbamoyl}eth-1-en-1-yl]benzamido}bicyclo [2.2.1]heptane-2-carboxamide] | 96
6 | COc1ccc(C[C@H]2C[C@H](O)C2)cc1C(=O)N[C@H]1[C@@H](C(=O)Nc2ccc(F)c(C(F)(F)F)c2)[C@H]2CC[C@@H]1/C2=C\C(F)(F)F [Example 279, (1R,2S,3R,4R,7Z)-N-[4-fluoro-3-(trifluoromethyl)phenyl]-3-(2-methoxy-5-{[(1r,3s)-3-hydroxycyclobutyl]methyl}benzamido)-7-(2,2,2-trifluoroethylidene) bicyclo[2.2.1]heptane-2-carboxamide] | 18.3
7 | COc1ccc(COC[C@@H]2C[C@@H]2CO)cc1C(=O)N[C@H]1[C@@H](C(=O)Nc2ccc(F)c(C(F)(F)F)c2)[C@H]2CC[C@@H]1/C2=C\C1CC1 [Example 293, (1R,2S,3R,4R,7Z)-7-(cyclopropyl-methylidene)-N-[4-fluoro-3-(trifluoromethyl)phonyl]-3-[5-({[(1R,2S)-2-(hydroxymethyl)cyclopropyl]methoxy}methyl)-2-methoxybenzamido] bicyclo[2.2.1]heptane-2-carboxamide] | 67.1
8 | COc1ccc(C(=O)N2CCCC(CO)C2)cc1C(=O)N[C@H]1[C@@H](C(=O)Nc2ccc(F)c(C(F)(F)F)c2)[C@H]2CC[C@@H]1/C2=C\C1CC1 (stereo partly drawn) [Example 235, (1R,2S,3R,4R,7Z)-7-(cyclopropylmethyl-idene)-N-[4-fluoro-3-(trifluoromethyl)phenyl]-3-{5-[3-(hydroxymethyl)piperidine-1-carbonyl]-2-methoxybenzamido} bicyclo[2.2.1] heptane-2-carboxamide] | 130
9 | COc1ccc(S(=O)(=O)N2CCNCC2CCO)cc1C(=O)N[C@H]1[C@@H](C(=O)Nc2ccc(F)c(C(F)(F)F)c2)[C@H]2CC[C@@H]1/C2=C\C(F)(F)F (stereo partly drawn) [Example 216, (1R,2S,3R,4R,7Z)-N-[4-fluoro-3-(trifluoromethyl)phenyl]-3-(5-{[2-(2-hydroxyethyl)piperazin-1-yl]sulfonyl}-2-methoxybenzamido)-7-(2,2,2-trifluoroethylidene) bicyclo[2.2.1]heptane-2-carboxamide] | 281
10 | COc1ccc(S(=O)(=O)N2CCN3C(=O)OCC3C2)cc1C(=O)N[C@H]1[C@@H](C(=O)Nc2ccc(F)c(C(F)(F)F)c2)[C@H]2CC[C@@H]1/C2=C\C(F)(F)F (stereo partly drawn) [Example 220, (1R,2S,3R,4R,7Z)-N-[4-fluoro-3-(trifluoromethyl)phenyl]-3-[2-methoxy-5-({3-oxo-hexahydro-1H-[1,3]oxazolo[3,4-a]piperazin-7-yl}sulfonyl)benzamido]-7-(2,2,2-trifluoroethylidene) bicyclo[2.2.1] heptane-2-carboxamide] | 459
11 | COc1ccc(S(=O)(=O)N2CCS(=O)(=O)CC2)cc1C(=O)N[C@H]1[C@@H](C(=O)Nc2ccc(F)c(C(F)(F)F)c2)[C@H]2CC[C@@H]1/C2=C\C1CC1 [Example 222, (1R,2S,3R,4R,7Z)-7-(cyclopropylmethylidene)-3-{5-[(1,1-dioxo-1λ^6-thiomorpholin-4-yl)sulfonyl]-2-methoxybenzamido}-N-[4-fluoro-3-(trifluoromethyl)phenyl]bicyclo[2.2.1] heptane-2-carboxamide] | 84.9
12 | COc1ccc(/C=C/C(=O)N2CC(O)C2)cc1C(=O)N[C@H]1[C@@H](C(=O)Nc2ccc(F)c(C(F)(F)F)c2)[C@H]2CC[C@@H]1/C2=C\C1CC1 [Example 313, (1R,2S,3R,4R,7Z)-7-(cyclopropyl-methylidene)-N-[4-fluoro-3-(trifluoromethyl)phenyl]-3-{5-[(1E)-3-(3-hydroxyazetidin-1-yl)-3-oxoprop-1-en-1-yl]-2-methoxybenzamido} bicyclo[2.2.1]heptane-2-carboxamide] | 32.9
13 | COc1ccc(/C=C/C(=O)N2CCC(O)CC2)cc1C(=O)N[C@@H]1C2CCC(/C2=C/C(F)(F)F)[C@@H]1C(=O)Nc1ccc(F)c(C(F)(F)F)c1 (stereo partly drawn) [Example 125, (2S,3R,7Z)-N-[4-fluoro-3-(trifluoromethyl)phe-nyl]-3-{5-[(1E)-3-(4-hydroxypiperidin-1-yl)-3-oxoprop-1-en-1-yl]-2-methoxybenzamido}-7-(2,2,2-trifluoroethylidene)bi-cyclo[2.2.1]heptane-2-carboxamide] | 13
14 | COc1ccc(CCCC(F)F)cc1C(=O)NC1C2CCC(/C2=C/C2CCC2)[C@@H]1C(=O)Nc1ccc(F)c(C(F)(F)F)c1 (stereo partly shown) [Example 196, (7Z)-7-(cyclobutylmethyl-idene)-3-[5-(4,4-difluorobutyl)-2-methoxybenzamido]-N-[4-fluoro-3-(trifluoromethyl)phe-nyl]bicyclo[2.2.1] heptane-2-carboxamide] | 32
15 | COc1cc(CN2C(=O)CNC2=O)ccc1C(=O)N[C@@H]1C2CCC(/C2=C/C2CC2)[C@@H]1C(=O)Nc1ccc(F)c(C(F)(F)F)c1 (stereo partly drawn) [Example 25, (2S,3R,7Z)-7-(cyclopropylmethyli-dene)-3-{4-[(2,5-dioxoimidazolidin-1-yl)methyl]-2-methoxybenzamido}-N-[4-fluoro-3-(trifluoromethyl)phe-nyl]bicyclo[2.2.1] heptane-2-carboxamide] | 2040
16 | COc1ccc(C#CCCCCO)cc1C(=O)N[C@@H]1C2CCC(/C2=C/C(F)(F)F)[C@@H]1C(=O)Nc1ccc(F)c(C(F)(F)F)c1 (stereo partly drawn) [Example 78, (2S,4R,7Z)-N-[4-fluoro-3-(trifluoromethyl)phe-nyl]-3-[5-(6-hydroxyhex-1-yn-1-yl)-2-methoxybenzamido]-7-(2,2,2-trifluoroethylidene)bi-cyclo[2.2.1]heptane-2-carboxamide] | 229
17 | COc1ccc(S(=O)(=O)N2CCOCC2)cc1C(=O)NC1C2CCC(/C2=C/C(F)(F)F)[C@@H]1C(=O)Nc1ccc(F)c(C(F)(F)F)c1 (stereo partly drawn) [Example 199, (2S,3R,7Z)-N-[4-fluoro-3-(trifluoromethyl)phe-nyl]-3-[2-methoxy-5-(morpholine-4-sulfonyl)benzamido]-7-(2,2,2-triflurooethylidene)bi-cyclo[2.2.1]heptane-2-carboxamide] | 719
18 | COc1ccc(C23CCC(C(C)(C)O)(CC2)CC3)cc1C(=O)N[C@H]1[C@@H](C(=O)Nc2ccc(F)c(C(F)(F)F)c2)[C@H]2CC[C@@H]1/C2=C\C1CC1 [Example 275, (1R,2S,3R,4R,7Z)-7-(cyclopropylmethyl-idene)-N-[4-fluoro-3-(trifluoromethyl)phenyl]-3-{5-[4-(2-hydroxypropan-2-yl)bicyclo[2.2.2]octan-1-yl]-2-methoxybenzamido} bicyclo[2.2.1]heptane-2-carboxamide] | 41.8
19 | COc1ccc(/C=C/C(=O)N2CCC(C(F)(F)F)CC2)cc1C(=O)N[C@H]1[C@@H](C(=O)Nc2ccc(F)c(C(F)(F)F)c2)[C@H]2CC[C@@H]1/C2=C\C1CC1 [Example 315] | 91.2
